Values of other authors in patent publication US8569271B2 (Laboratorios del Dr. Esteve, S.A., priority 2009, dated 2013).

Cc1ccc(-c2cc(C(F)(F)F)nn2-c2ccc(S(N)(=O)=O)cc2)cc1 [celecoxib, 4-[5-(4-methylphenyl)-3-(trifluoromethyl)-pyrazol-1-yl]-benzenesulfonamide]
solubility in water: only slightly soluble in water
